Source: EP4759807A1, “PROTEOLYSIS TARGETING CHIMERA COMPOUND FOR DEGRADING IRAK4 AND USE THEREOF” (Shenzhen Zhongge Biological Technology Co., Ltd., priority 2023, dated 2025)
Like-named read-outs stand apart in the source and are kept apart here.

How the values were obtained:
CYP1A2 = target: T1, CYP1A2 (Homo sapiens, UniProt P05177); assay: Inhibitory effect on human liver microsome CYP450 enzyme; format: in vitro ADME; details: human liver microsomes, substrate Phenacetin
T1 construct: 0.05 mg/mL liver microsomes (BioIVT, IHG) phosphate buffer solution; tissue BioIVT IHG; host or cells: human liver microsomes
T1 sequence (P05177 1-516): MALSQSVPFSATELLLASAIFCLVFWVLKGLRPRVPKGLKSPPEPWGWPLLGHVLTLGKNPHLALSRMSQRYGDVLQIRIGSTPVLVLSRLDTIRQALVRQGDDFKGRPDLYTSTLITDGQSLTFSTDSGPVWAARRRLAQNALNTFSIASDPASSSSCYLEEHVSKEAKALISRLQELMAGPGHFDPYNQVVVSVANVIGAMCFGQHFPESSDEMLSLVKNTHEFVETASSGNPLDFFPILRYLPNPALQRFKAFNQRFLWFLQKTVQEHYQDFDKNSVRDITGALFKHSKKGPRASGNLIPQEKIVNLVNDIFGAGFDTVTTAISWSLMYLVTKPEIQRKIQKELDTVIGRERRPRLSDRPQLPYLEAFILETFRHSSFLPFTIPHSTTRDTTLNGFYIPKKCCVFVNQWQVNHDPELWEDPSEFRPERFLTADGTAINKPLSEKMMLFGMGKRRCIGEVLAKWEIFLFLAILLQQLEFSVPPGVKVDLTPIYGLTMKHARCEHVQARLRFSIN
Method: (§1) In this experiment, the compound, liver microsomes and different CYP isoform enzyme substrates were incubated in a 37°C water bath, the amount of substrate metabolites generated was measured, and the inhibitory effect of the compound of the present disclosure on CYP enzyme was evaluated based on the IC50 value.
(§2) i. The compound was diluted with DMSO (Aladdin, catalog number: D103273-500ml) to concentrations of 0, 0.02, 0.06, 0.2, 0.6, 2 and 6 mM. The positive reference inhibitors for each CYP isoform and their concentrations are shown in Table 4 Table 4 Positive reference inhibitors for CYP isoform enzymes and their concentrations
(§3) ii. Phosphate buffer (sigma: V900050-500G) was used to formulate the substrate solution for each CYP isoform enzyme. Table 5 The substrate and the concentration thereof for CYP isoform enzyme
(§4) iii. Sample incubation. 1 µL of each concentration of the compound and positive reference inhibitor for CYP isoform enzyme were taken and placed into a 96-deep well plate (A-gen: P-1.0-RD-96-S), and 169 µL of 0.05 mg/mL liver microsomes (BioIVT, IHG) phosphate buffer solution (using 0.2 mg/mL liver microsomes for CYP2C19) was added. After uniform mixing, the plate was placed in a 37°C water bath (Shanghai Jinghong Experimental Equipment Co., Ltd., DK-500) with shaking for pre-incubation for 15 min. 10 µL of substrate (adding 1 µL of substrate for CYP3A4-Testosterone) and 20 µL of 10 mM NADPH phosphate buffer solution (MCE, HYF003/CS-4998) were added. After uniform mixing, the plate was incubated in a water bath with shaking for the following time: CYP1A2: 20 min, CYP2C9: 10 min, CYP2C19: 10 min, CYP2D6: 10 min, CYP3A4-Testosterone: 10 min, CYP3A4-Midazolam: 5 min. 400 µL of glacial acetonitrile/methanol (v/v, 1:1) containing an internal standard (500 nM tolbutamide, 5 nM terfenadine) was added to terminate the reaction. After centrifugation at 4000 rpm at 4°C for 40 min, the supernatant was taken and diluted with pure water according to the response of the metabolite of the substrate, and then UPLC-MS/MS (Sciex, Q-Trap 4500) was used for detection to obtain the peak area. The C18 chromatographic column was Kinetex 2.6u C18 100A (50 mm*3 mm).
(§5) The inhibitory effect of the compound on each P450 enzyme in human liver microsomes was calculated as the percentage of reduced metabolite formation compared with the non-inhibitory control (i.e. blank DMSO). The IC50 value of the compound for each P450 enzyme in human liver microsomes was calculated with the logarithm of the remaining activity and the inhibitor concentration using Graphpad Prism software. The calculation equation was as follows: Peak area ratio = compound peak area / internal standard peak area [formula] [formula]
(§6) In Graphpad Prism software, the IC50 value was calculated using the standard four-parameter curve fitting algorithm.

CYP2C19 = target: T2, CYP2C19 (Homo sapiens, UniProt P33261); assay: as above; format: in vitro ADME; details: human liver microsomes, substrate Mephenytoin
T2 construct: (using 0.2 mg/mL liver microsomes for CYP2C19); tissue BioIVT IHG; host or cells: human liver microsomes
T2 sequence (P33261 whole entry): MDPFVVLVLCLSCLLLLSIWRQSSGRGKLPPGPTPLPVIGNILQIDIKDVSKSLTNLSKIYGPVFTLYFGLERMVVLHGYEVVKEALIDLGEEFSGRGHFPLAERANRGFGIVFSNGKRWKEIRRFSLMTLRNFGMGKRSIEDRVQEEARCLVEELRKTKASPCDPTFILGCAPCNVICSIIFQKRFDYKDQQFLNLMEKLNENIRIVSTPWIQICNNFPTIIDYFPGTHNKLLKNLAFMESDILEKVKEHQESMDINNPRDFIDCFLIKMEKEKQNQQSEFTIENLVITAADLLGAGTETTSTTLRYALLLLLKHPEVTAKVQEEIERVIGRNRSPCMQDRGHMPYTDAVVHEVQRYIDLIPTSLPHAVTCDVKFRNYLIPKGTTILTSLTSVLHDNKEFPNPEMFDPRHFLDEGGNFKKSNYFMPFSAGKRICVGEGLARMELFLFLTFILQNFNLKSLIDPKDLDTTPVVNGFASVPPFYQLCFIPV
Method: as §1, §2, §3, §4, §5, §6

CYP2D6 = target: T3, CYP2D6 (Homo sapiens, UniProt P10635); assay: as above; format: in vitro ADME; details: human liver microsomes, substrate Dextromethorphan
T3 construct: 0.05 mg/mL liver microsomes (BioIVT, IHG) phosphate buffer solution; tissue BioIVT IHG; host or cells: human liver microsomes
T3 sequence (P10635 whole entry): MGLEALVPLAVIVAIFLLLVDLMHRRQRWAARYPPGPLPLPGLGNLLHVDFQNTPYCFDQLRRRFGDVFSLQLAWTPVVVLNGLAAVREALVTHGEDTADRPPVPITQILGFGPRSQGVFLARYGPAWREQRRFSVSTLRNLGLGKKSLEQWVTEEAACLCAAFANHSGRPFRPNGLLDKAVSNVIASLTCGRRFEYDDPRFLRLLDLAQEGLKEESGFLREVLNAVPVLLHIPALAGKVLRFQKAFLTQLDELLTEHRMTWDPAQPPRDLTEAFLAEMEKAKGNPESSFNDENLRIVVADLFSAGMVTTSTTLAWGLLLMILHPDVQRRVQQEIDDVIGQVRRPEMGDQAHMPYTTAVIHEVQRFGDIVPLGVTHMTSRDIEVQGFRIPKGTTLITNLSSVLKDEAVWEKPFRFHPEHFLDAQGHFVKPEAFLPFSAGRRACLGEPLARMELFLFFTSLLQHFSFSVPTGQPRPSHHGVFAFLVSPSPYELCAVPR
Method: as §1, §2, §3, §4, §5, §6

CYP3A4 = target: T4, CYP3A4 (Homo sapiens, UniProt P08684); assay: as above; format: in vitro ADME; details: liver microsomes
T4 construct: 0.05 mg/mL liver microsomes (BioIVT, IHG) phosphate buffer solution; tissue BioIVT IHG; host or cells: human liver microsomes
T4 sequence (P08684 whole entry): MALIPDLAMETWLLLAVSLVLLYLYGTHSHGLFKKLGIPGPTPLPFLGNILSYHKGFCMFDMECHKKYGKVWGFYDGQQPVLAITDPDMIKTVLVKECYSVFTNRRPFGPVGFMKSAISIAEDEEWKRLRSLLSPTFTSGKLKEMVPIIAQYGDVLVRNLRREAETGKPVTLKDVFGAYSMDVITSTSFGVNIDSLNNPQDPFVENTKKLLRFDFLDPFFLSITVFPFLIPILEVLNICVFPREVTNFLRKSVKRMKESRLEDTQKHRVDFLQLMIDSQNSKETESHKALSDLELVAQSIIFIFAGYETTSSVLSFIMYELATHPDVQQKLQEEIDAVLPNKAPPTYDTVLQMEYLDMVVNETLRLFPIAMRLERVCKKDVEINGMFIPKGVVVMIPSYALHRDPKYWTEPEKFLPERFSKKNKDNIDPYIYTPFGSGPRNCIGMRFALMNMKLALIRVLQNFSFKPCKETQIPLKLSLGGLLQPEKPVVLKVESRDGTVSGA
Method: as §1, §2, §3, §4, §5, §6

[1] = system: IFN-γ, IL-1β, IL-6, IL-10, IL-12p70, TNF-α and IL-23 secretion by hPBMC; assay: Inhibition of LPS-induced secretion of multiple cytokines by human-derived PBMC (MSD detection); format: cell-based; details: 8 h compound, then LPS 2 ng/mL 16 h; compared with KT474
Method: Experiment materials: Human-derived peripheral blood mononuclear cells (hPBMC) were provided by Hemacare Donor Center.
Thawing and plating PBMCs: The frozen PBMC was removed from liquid nitrogen, thawed in a 37°C water bath kettle, then resuspended with 10 mL of complete medium, and centrifuged at 350 g at room temperature for 5 min, and the supernatant was discarded. The cells were resuspended with 5 mL of complete medium, and the cells were counted. The cells were diluted to 2 × 10^6/mL based on the counting results, and 0.1 mL (2 × 10^5 cells) was added to each well of the 96-well plate.
After uniform mixing, incubation was performed in an incubator at 37°C and 5% CO2 for 8 h.
LPS induction: After 8 h, 50 µL of LPS was added to all wells to a final concentration of 2 ng/mL. After uniform mixing, incubation was further performed in an incubator at 37°C and 5% CO2 for 16 h. […]
MSD detection: The buffer was added to the freeze-dried human inflammatory factor standard mixture to prepare a highest concentration standard (standard 1), and then serial 4-fold dilutions were performed and a standard with a concentration of 0 was prepared (a total of 10 concentrations). […] The plate was washed 3 times, and then 150 µL of 2× reading buffer was added and the plate was read using an MSD instrument.

Cn1c(=O)n(C2CCC(=O)NC2=O)c2cccc(N3CCC(N4CCN(C[C@H]5CC[C@H](n6cc(-n7cc(-c8cnn9ccc(N%10CCC[C@H](O)C%10)nc89)nn7)c(C(F)F)n6)CC5)CC4)CC3)c21 (stereo partly drawn) [Example 146]
IC50 (CYP1A2): > 30 µM
IC50 (CYP2C19): 18.4 µM
IC50 (CYP2D6): > 30 µM
IC50 (CYP3A4; substrate Midazolam, read-out: IC50 (µM) CYP3A4-M): > 30 µM
IC50 (CYP3A4; substrate Testosterone, read-out: IC50 (µM) CYP3A4-T): > 30 µM
ability to inhibit the secretion of multiple cytokines by human-derived PBMC [1]: significantly better than that of positive reference KT474
